# Assay results from US20150165097A1, “HARDENABLE ANTIMICROBIAL COMPOSITION” (priority 2012, published 2015).
# Structures can show the parent of a compound that is named as a salt. Where two headings read alike, the source gives them in different places.
# How the values were obtained:
# [1] = Solubility / solution appearance of antimicrobial agent in vehicle before addition of PVC
# Protocol: The antimicrobial agent was added to a small vial. For samples containing CPC or OCT, benzyl alcohol (BzOH, available from Mallinkrodt Baker Inc. of Phillipsburg, N.J.), was also added and the mixture was vortexed. Zinc octoate (ZnOct) was then added to the mixture. In a separate jar, a batch mixture containing DINCH, ESO and di-IDPP was prepared; the solution was allowed to roll until a clear/colorless mixture was obtained with no mixing lines. In a separate jar, the appropriate amount of batch mixture was added into the vial containing the antimicrobial agent, solvent, and zinc octoate (ZnOct). The mixture was vortexed and the solution was allowed to roll at a setting of 60 rpm until a determination was made as to whether or not the antimicrobial was dissolving in the solution.
# The BKC was dispensed into a 25 mL vial. To this was added the DINCH, TIDP, and ZnOct in that order. The vial was then capped and vortexed for several seconds, and then placed on rollers set at 65 rpm in order to promote the dissolution (if possible) of the BKC. […]
# The antimicrobial agents assessed were BKC, BZT, OCT, PCMX, POEtOH, and PHMB. The amount of each antimicrobial agent added was calculated to be equal to the same number of moles of BKC at 1.5 wt % in the plastisol formulation. […]
# [2] = Solubility of antimicrobial agent in plasticizer alone (Example 1); format: physicochemical
# Protocol: The solubility of three different antimicrobial agents: benzalkonium chloride (BKC), octenidine dihydrochloride (OCT), and polyhexamethylene biguanide (PHMB); in various plasticizers was evaluated by the following procedure. The antimicrobial agent was added to a small vial; to this, the plasticizer of interest was added. […] In each solution, 1.5% wt/wt of one antimicrobial agent (BKC, OCT, or PHMB) was combined with 98.5% wt/wt of one of each of the following plasticizers: DINCH, acetyl tributyl citrate, trioctyl trimellitate, dioctyl adipate, or polyester adipate.
# [3] = Solubility of antimicrobial agent in plasticizer with heat stabilizer package (Example 2), judged visually; details: 1.1 wt %; ESO, DDPP and ZnOct present
# Protocol: To the vial containing the plasticizer and antimicrobial, the appropriate amount (see below) of a master batch solution of PVC heat stabilizer was added. The master batch solution of PVC heat stabilizer included: epoxidized soybean oil (ESO), decyl diphenyl Phosphite (DDPP), and zinc octoate (ZnOct). The solution was allowed to roll overnight at ambient temperature at 60 rpm to determine if the antimicrobial was soluble in that system. Samples were evaluated visually for solubility. […] Samples that were clear were judged to have the cationic antimicrobial completely soluble. Those that were hazy were judged to have the antimicrobial partially soluble. Those that were opaque white were substantially insoluble.
Molecule,"Solubility in MESAMOLL ([1]; Example 8, BZT: at low concentrations of ZnOct, OCT: even with increasing amounts of ZnOct)",Solubility in plasticizer [2],"Solubility in DINCH, ATC, TOTM, DOA and PEA with heat stabilizing package [3]","Solubility of BKC in DINCH, TIDP vehicle ([1]; Example 4, in the absence of ZnOct)","Solubility in plasticizer ([2]; 1.5% wt/wt antimicrobial agent in 98.5% wt/wt DINCH, acetyl tributyl citrate, trioctyl trimellitate, dioctyl adipate or polyester adipate, rolled 16 hours at 60 rpm)"
"OCCOc1ccccc1 [POEtOH, 2-phenoxyethanol]",well below their solubility limits,,,,
"CCCCCCCCCCCCCC[N+](C)(C)Cc1ccccc1.[Cl-] [BKC, Benzyl dimethyl tetradecyl ammonium chloride]",,none of these antimicrobial agents were soluble,soluble,much less solubility,
"CCCCCCCCN=c1ccn(CCCCCCCCCCn2ccc(=NCCCCCCCC)cc2)cc1 [OCT, Octenidine dihydrochloride]",,none of these antimicrobial agents were soluble,not soluble,,
Polyhexamethylene biguanide [PHMB],,,not soluble,,none of these antimicrobial agents were soluble
